The test system of one data set is RG2 xenografts. Put plainly: Antitumor effect, RG2 xenografts in nude mice. The format is in vivo, mouse. The following applies: 1 mg kg^−1 IV, 5 doses. The protocol:
All experiments were approved by the Oregon Health and Science University (OHSU) Institutional Animal Care and Use Committee (IACUC) (TR01_IP00000674) and conformed to the guidelines set by the United States Animal Welfare Act and the National Institutes of Health. Mice were aged between 3 and 8 months and 20–30 g in weight and were housed in specific pathogen free cages. Human, mouse, or rat cells were injected into nude (The Jackson Laboratory, 002019), NSG mice (The Jackson Laboratory, 005557), Balb/c mice (The Jackson Laboratory, 000651), or C57Bl/6J mice (The Jackson Laboratory, 000664), as specified below. Cells were injected in 100 µL sterile DMEM at a concentration of 0.5–1×10^7 cells mL^−1, unless otherwise specified. For tumor accumulation and biodistribution studies, A375 cells were injected intradermally into the left ears of NSG mice (The Jackson Laboratory, 005557). MCF7 cells were injected into the mammary fat pad of NSG mice. […]
(§1) Mice were injected with 4T1, RG2, or HCT‐116 cells as described above. […] Tumor size and mouse weight were monitored 2–3 times per week until a humane endpoint (tumor size ≈2 cm or >20% body weight loss) or the study endpoint (18, 25, or 120 days for 4T1, RG2, and HCT‐116 studies, respectively). Tumor size was measured in two directions with a caliper rounded to the nearest tenth of a mm. Volume was calculated as a basic sphere of 4/3πr^3.

In the next data set the test system is 4T1 tumor. Put plainly: Antitumor effect, 4T1 orthotopic mouse model. As for the experimental part:
(§2) All experiments were approved by the Oregon Health and Science University (OHSU) Institutional Animal Care and Use Committee (IACUC) (TR01_IP00000674) and conformed to the guidelines set by the United States Animal Welfare Act and the National Institutes of Health. Mice were aged between 3 and 8 months and 20–30 g in weight and were housed in specific pathogen free cages. Human, mouse, or rat cells were injected into nude (The Jackson Laboratory, 002019), NSG mice (The Jackson Laboratory, 005557), Balb/c mice (The Jackson Laboratory, 000651), or C57Bl/6J mice (The Jackson Laboratory, 000664), as specified below. Cells were injected in 100 µL sterile DMEM at a concentration of 0.5–1×10^7 cells mL^−1, unless otherwise specified. For tumor accumulation and biodistribution studies, A375 cells were injected intradermally into the left ears of NSG mice (The Jackson Laboratory, 005557). MCF7 cells were injected into the mammary fat pad of NSG mice. HCT‐116, RG2, and HeLa (wild type or LDL‐R knockout) cells were subcutaneously injected into the left or both flanks of NSG mice. 4T1 cells were injected into the mammary fat pad of Balb/c mice. LLC1, MC38, and TRAMP‐C2 (wild type or SR‐B1 knockout) were injected into C57Bl/6J mice. Patient‐derived xenografts were generated by injecting the patient‐derived cancer cells subcutaneously into the left flank of NSG mice. ApoA1 and LDL‐R knockout mice were purchased from the Jackson Laboratory (002055 and 002207, respectively). MC38 cells were subcutaneously injected into both flanks of these mice. Apc^min and MMTV‐PyMT mice were purchased from the Jackson Laboratory (002020 and 002374). For antitumor activity studies, 4T1 cells were injected into the mammary fat pad of Balb/c mice. HCT‐116 and RG2 cells were subcutaneously injected into the left flanks of nude mice. For antitumor activity studies, HCT‐116 cells were injected in a 1:1 mixture of DMEM and Matrigel (Life Science 354263).
as §1, with “above. Mice were then treated intravenously with the free MMAE (0.1 or 0.3 mg kg^−1), SA‐E‐MMAE (0.3, 0.6, 0.8, or 1 mg kg^−1) or PBS (10 mM, pH 7.4). 5 doses were given every 2–3 days over 11 days.” for “above.”

A short description of data set [1]: Fluorescence polarization of PA nanostructures. Format: physicochemical. The following applies: ICG‐conjugated SA‐E (10 mol%) mixed with MMAE‐conjugated SA‐E (90 mol%), 200 µM total; mean ± SEM. The protocol: ICG (10 mol%) containing PA micelles were prepared by mixing ICG‐conjugated PAs with unconjugated or MMAE‐conjugated PAs to achieve a final concentration of 20 µM ICG‐conjugated PAs and 200 µM of total PAs. Aliquots of 100 µL were added to a 96‐well plate (3 wells for each PA). Fluorescence polarization measurements were performed using a microplate reader (TECAN Spark 20 M). The corrected parallel intensity (I par) and perpendicular intensity (Iper) were used to calculate the fluorescence anisotropy (r) using the following equation: r = […].
A general note: Fluorescence polarisation rises when a labelled molecule tumbles more slowly, as on binding a larger partner.

In the next data set the test system is HCT‐116 tumor. The protocol:
as §2
as §1, with “above. Mice were then treated intravenously with the free MMAE (0.1 or 0.3 mg kg^−1), SA‐E‐MMAE (0.3, 0.6, 0.8, or 1 mg kg^−1) or PBS (10 mM, pH 7.4). 5 doses were given every 2–3 days over 11 days.” for “above.”

Data set [2] deals with LPs (HDL, LDL, VLDL) and albumin in pooled human plasma. Kind of data set: FPLC of PAs in 10% human plasma. The following applies: MMAE conjugated SA‐E, 250 µM, detection at 250 nm.
Description: FPLC experiments were performed using SA‐E, SA‐K, or No‐SA conjugated with ICG or SA‐E conjugated with MMAE at a final concentration of 250 µM in filtered PBS (10 mM, pH 7.4) with or without human plasma or purified LPs or albumin. For analysis of SA‐E interactions with purified LPs, VLDL, LDL, HDL, and human serum albumin were diluted in filtered PBS to approximate concentrations found in 10% human plasma: 0.0025, 0.13, 0.05, and 5mg mL^−1, respectively. SA‐E was incubated with the purified LP/protein mixture for 30 min at 37 °C before injection. For analysis of plasma interactions, PAs or No‐SA were incubated in PBS containing 10% pooled human plasma for 30 min at 37 °C before injection. The total volume injected for all samples was 400 µL. All data was collected on an ÄKTA pure chromatography system using the following running conditions: size exclusion chromatography on a Superose 6 Increase 10/300 GL column with a column volume (CV) of 30 mL, pre‐column pressure limit of 5 MPa, delta‐column pressure limit of 2.6 MPa, flow rate of 0.75 mL min^−1, in 100% PBS. The sample running method included first an equilibration step before injection of the sample with 100% PBS for 0.5 CV, followed by sample application via 1 mL capillary loop in 100% PBS, and finished with a linear elution consisting of 2 CV collected in 1 mL fractions. The UV‐Vis detector wavelengths were 250, 280, and 700 nm to detect MMAE, all proteins/LPs, and ICG, respectively.

Like-named read-outs stand apart in the source and are kept apart here. *1 amine or outer side, *2 acyl side, *3 side chain or, on linkers, in order; H or OH if unused. Where a SMILES comes first, the peptide text is derived from it. Bridges are numbered along the chain shown (N, C = ends). Roman numbers before positions name the chains, in order. [ ]: non-standard residue; d: D form. The star is where a group is joined. Hexanoyl(6-succinimido-3yl) = O=C1CC([*:1])C(=O)N1CCCCCC(=O)[*:2]; Dolaproine = CO[C@@H]([C@@H]1CCCN1)[C@@H](C)C(=O)O; Dil = CC[C@H](C)[C@H](NC)[C@@H](CC(=O)O)OC; PABC = O=C(OCc1ccc(N[*:1])cc1)[*:2]; Palmitoyl = CCCCCCCCCCCCCCCC(=O)*; X1 = C[C@@H](N*)[C@@H](O)c1ccccc1; Cit = NC(=O)NCCC[C@H](N)C(=O)O; NMeV = CN[C@H](C(=O)O)C(C)C

For the compound `CCCCCCCCCCCCCCCC(=O)NCC(=O)NCC(=O)NCC(=O)N[C@@H](Cc1c[nH]cn1)C(=O)N[C@@H](C)C(=O)N[C@@H](C)C(=O)N[C@@H](CC(N)=O)C(=O)NCC(=O)N[C@@H](CCC(=O)O)C(=O)N[C@@H](CCC(=O)O)C(=O)N[C@@H](CSC1CC(=O)N(CCCCCC(=O)N[C@H](C(=O)N[C@@H](CCCNC(N)=O)C(=O)Nc2ccc(COC(=O)N(C)[C@H](C(=O)N[C@H](C(=O)N(C)[C@@H]([C@@H](C)CC)[C@@H](CC(=O)N3CCC[C@H]3[C@H](OC)[C@@H](C)C(=O)N[C@H](C)[C@@H](O)c3ccccc3)OC)C(C)C)C(C)C)cc2)C(C)C)C1=O)C(=O)N[C@@H](CCC(=O)O)C(=O)O` (some centres unmarked) [SA‐E‐MMAE] (I: Palmitoyl-GGGHAANGEECE-OH / II: V[Cit][PABC][NMeV]V[Dil][Dolaproine]-X1; linker I:11-II:N via Hexanoyl(6-succinimido-3yl); C-terminus assumed), the “reduction in the tumor volume” value in the data set with RG2 xenografts (n = 4, compared to the control) is given as “around 80%”. In addition, the body weight entry was “slight weight loss” with RG2 xenografts (at the beginning of the therapy, overall tolerated) and “no significant weight loss” in the data set with 4T1 tumor (0.6 mg kg^−1 IV, 5 doses). Further, the tumor growth reduction result in the data set on 4T1 tumor (0.6 mg kg^−1 (based on MMAE) IV, 5 doses over 11 days, n = 5, versus free MMAE and PBS) was “≈ 75%”. For the same compound, the “fluorescence anisotropy of ICG in micelles” value in data set [1] is 0.188 ± 0.002. For the same compound, the overall survival result in the data set with HCT‐116 tumor (0.8 mg kg^−1 IV, 5 doses, n = 4, log‐rank) is “significantly improved the overall survival”. The “effect on tumor size” value with HCT‐116 tumor (0.8 mg kg^−1 of MMAE IV, days 11, 14, 17, 19, 21, all mice, n = 4) was “reduction in the tumor size”. Moreover, the average tumor volume entry was “≈ 150 mm^3” with HCT‐116 tumor (day 21, end of treatment) and “≈ 40 mm^3” in the data set on HCT‐116 tumor (day 33). Besides, the “tumor‐free mice” value in the data set on HCT‐116 tumor (day 120) was “one mouse remained tumor‐free on day 120”. Further, the “plasma component bound (FPLC)” value in data set [2] is given as “assembled with HDL”.

The record behind these values is article PMC12801355, “Peptide Amphiphiles Hitchhike on Endogenous Biomolecules for Enhanced Cancer Imaging and Therapy” (Advanced Materials (Deerfield Beach, Fla.), 2025).
